# Experimental data: patent US10774053B2, “HIV protease inhibitors” (Gilead Sciences, Inc., priority 2017, dated 2020)
# Like-named read-outs stand apart in the source and are kept apart here.
# Experiments:
# [1] = Liver microsomal stability, human liver microsomes; conditions: human
# Experimental: Liver Microsomal Stability Protocol
# Test compounds and one control compound (verapamil) were tested in 3 different species in duplicate sets.
# Test compound concentration: 1 uM; Protein concentration: 0.5 mg/mL (for dog, rat, and human liver microsomes); Cofactor: NADPH-Regenerating system (NRS) solution; Time-points: 2, 12, 25, 45, and 65 minutes.
# Reaction Composition (in Each Incubation Well) Contains:
# At an incubation temperature of 37° C., the reaction was started with addition of NADPH Regeneration System, at each time point, 25 uL of the reaction mixture was removed and added to a plate with 225 uL quenching solution (50% MeOH, 25% ACN, 25% H2O, and 200 nM labetalol as internal standard). After plates were vortexed, they were centrifuged for 30 minutes to remove proteins. About 100 μL supernatant was removed to a new plate and diluted with 150 μL water. About 20 μL of the mixture was injected into LC/MS/MS system to monitor the compound's response. In vitro measured t1/2 was used to calculate Clint values.
# [2] = tested on: HIV-1 (IIIB) in MT-4 cells; assay: microbe, parasite or virus in culture; format: cell-based; conditions: Human immunodeficiency virus 1, IIIB
# [3] = MT4, MT-4 cells, HIV-1, read-out: MT4 EC50
Structure (SMILES),half-life at 1 uM ([1]; liver microsomes),"EC50 [2, 3]",half-life at 1 uM ([1]; microsomes),"EC50 ([2]; MT4, read-out: MT4 EC50 (nM))"
CC(C)(C)C[C@]1(c2ccc(-c3cnn(C(F)F)c3)cc2)NC(=N)N([C@H](COC(=O)NC(C)(C)C(F)F)c2ccc(Cl)c(-c3ncn[nH]3)c2)C1=O [Compound 78],≥ 6.58 h,74.9 nM,,
CC(C)(C)C[C@]1(c2ccc(-c3cnn(C(F)F)c3)cc2)NC(=N)N([C@H](COC(=O)NC(C)(C)C(F)F)c2ccc(Cl)c(-c3nccn3C(F)F)c2)C1=O [Compound 89],≥ 6.58 h,34.4 nM,,
CC(C)(C)C[C@]1(c2ccc(-c3cnn(C(F)F)c3)cc2)NC(=N)N([C@H](COC(=O)NC(C)(C)C(F)F)c2ccc(Cl)c(-c3nncn3C(F)F)c2)C1=O [Compound 91],≥ 6.58 h,200 nM,,
[2H]C([2H])([2H])n1cnc(-c2cc([C@@H](COC(=O)NC(C)(C)C(F)F)N3C(=N)N[C@](C[C@]4(C)CC4(F)F)(c4ccc(-c5cnn(C(F)F)c5)cc4)C3=O)ccc2Cl)n1 [Compound 97],≥ 6.58 h,18.9 nM,,
CC(C)(C)C[C@]1(c2ccc(-c3ncccn3)cc2)NC(=N)N([C@H](COC(=O)NC2(C(F)(F)F)CC2)c2ccc(Cl)c(-c3ncn[nH]3)c2)C1=O [Compound 105],≥ 6.58 h,36.7 nM,,
CC(C)(C)C[C@]1(c2ccc(-c3cnn(C(F)F)c3)cc2F)NC(=N)N([C@H](COC(=O)NC2(C(F)(F)F)CC2)c2ccc(Cl)c(-c3ncn[nH]3)c2)C1=O [Compound 110],≥ 6.58 h,96 nM,,
CC(C)(F)C[C@]1(c2ccc(-c3cnn(C(F)F)c3)cc2)NC(=N)N([C@H](COC(=O)NC(C)(C)C(F)F)c2ccc(Cl)c(-c3ncnn3C(F)F)c2)C1=O [Compound 129],≥ 6.58 h,27.3 nM,,
CC(C)(F)C[C@]1(c2ccc(-c3cnn(C(F)F)c3)cc2)NC(=N)N([C@H](COC(=O)NC2(C(F)(F)F)CC2)c2ccc(Cl)c(-c3ncnn3C(F)F)c2)C1=O [Compound 134],≥ 6.58 h,18.5 nM,,
CC(C)(C[C@]1(c2ccc(-c3cnn(C4CC4)c3)cc2)NC(=N)N([C@H](COC(=O)NC2(C(F)(F)F)CC2)c2ccc(Cl)c(-c3ncnn3C(F)F)c2)C1=O)C(F)(F)F [Compound 135],≥ 6.58 h,13.6 nM,,
C[C@H](NC(=O)OC[C@H](c1ccc(Cl)c(-c2ncnn2C(F)F)c1)N1C(=N)N[C@](CC(C)(C)C(F)(F)F)(c2ccc(-c3cnn(C4CC4)n3)cc2)C1=O)C(F)(F)F [Compound 153],≥ 6.58 h,14 nM,,
CC(C)(C[C@]1(c2ccc(-c3cnn(C4CC4)n3)cc2)NC(=N)N([C@H](COC(=O)NC2(C(F)(F)F)CC2)c2ccc(Cl)c(-c3ncnn3C(F)F)c2)C1=O)C(F)F [Compound 154],≥ 6.58 h,19.7 nM,,
CC(C)(C[C@]1(c2ccc(-c3cnn(C4CC4)n3)cc2)NC(=N)N([C@H](CNC(=O)CC(F)(F)F)c2ccc(Cl)c(-c3ncnn3C(F)F)c2)C1=O)C(F)(F)F [Compound 160],≥ 6.58 h,12.6 nM,,
CC(C)(C)C[C@]1(c2ccc(-c3cnn(C(F)F)c3)cc2)NC(=N)N([C@H](COC(=O)NC2(C(F)F)CC2)c2ccc(Cl)c(-n3ncnc3C(F)F)c2)C1=O [Compound 179],,,≥ 6.58 h,9.37 nM

# The next lines start with results.
half-life at 1 uM ([1]; liver microsomes),Structure (SMILES),"EC50 [2, 3]",half-life at 1 uM ([1]; microsomes),"EC50 ([2]; MT4, read-out: MT4 EC50 (nM))"
≥ 6.58 h,C[C@H](NC(=O)OC[C@H](c1ccc(Cl)c(-c2ncnn2C(F)F)c1)N1C(=N)N[C@](CC(C)(C)C)(c2ccc(-c3cnn(C(F)F)n3)cc2)C1=O)C(F)(F)F [Compound 163],9.06 nM,,
≥ 6.58 h,CC(C)(C)C[C@]1(c2ccc(-c3cnn(C(F)F)c3)cc2)NC(=N)N([C@H](COC(=O)NC(C)(C)C(F)(F)F)c2ccc(Cl)c(-n3ncnc3C(F)F)c2)C1=O [Compound 182],12 nM,,
≥ 6.58 h,CC(C)(C)C[C@]1(c2ccc(-c3cnn(C4CC4)n3)cc2F)NC(=N)N([C@H](COC(=O)NC2(C(F)(F)F)CC2)c2ccc(Cl)c(-n3ncnc3C(F)F)c2)C1=O [Compound 224],19.5 nM,,
≥ 6.58 h,CC(C)C[C@]1(c2ccc(-c3cnn(C(F)F)c3)cc2F)NC(=N)N([C@H](COC(=O)NC2(C(F)(F)F)CC2)c2ccc(Cl)c(-n3ncnc3C(F)F)c2)C1=O [Compound 278],23.6 nM,,
≥ 6.58 h,Cn1ccc(-c2ccc([C@@]3(CC(C)(C)C)NC(=N)N([C@H](COC(=O)NC4(C(F)(F)F)CC4)c4ccc(Cl)c(-n5ncnc5C(F)F)c4)C3=O)cc2F)n1 [Compound 289],8.26 nM,,
≥ 6.58 h,CC(C)(C)C[C@]1(c2ccc(-c3cnn(S(C)(=O)=O)c3)c(F)c2)NC(=N)N([C@H](COC(=O)NC2(C(F)(F)F)CC2)c2ccc(Cl)c(-n3ncnc3C(F)F)c2)C1=O [Compound 290],11.6 nM,,
≥ 6.58 h,CC(C)(C)C[C@]1(c2ccc(-c3cnn(S(=O)(=O)C4CC4)c3)c(F)c2)NC(=N)N([C@H](COC(=O)NC2(C(F)(F)F)CC2)c2ccc(Cl)c(-n3ncnc3C(F)F)c2)C1=O [Compound 291],11.8 nM,,
≥ 6.58 h,Cn1ccc(-c2ccc([C@@]3(CC(C)(C)C)NC(=N)N([C@H](COC(=O)NC4CC4(F)F)c4ccc(Cl)c(-n5ncnc5C(F)F)c4)C3=O)cc2F)n1 (stereo partly drawn) [Compound 295],7.33 nM,,
≥ 6.58 h,CC(C)(C)C[C@]1(c2ccc(-c3cnn(S(C)(=O)=O)c3)c(F)c2)NC(=N)N([C@H](COC(=O)NC2(C(F)F)CC2)c2ccc(Cl)c(-n3ncnc3C(F)F)c2)C1=O [Compound 303],11.2 nM,,
≥ 6.58 h,CC(C)(C[C@]1(c2ccc(-c3cnn(S(C)(=O)=O)c3)cc2)NC(=N)N([C@H](COC(=O)NC2(C(F)(F)F)CC2)c2ccc(Cl)c(-n3ncnc3C(F)F)c2)C1=O)C(F)(F)F [Compound 308],16.3 nM,,
≥ 6.58 h,CC(C)(C)C[C@]1(c2ccc(-c3cccc(S(C)(=O)=O)c3)c(F)c2)NC(=N)N([C@H](COC(=O)NC2(C(F)(F)F)CC2)c2ccc(Cl)c(-n3ncnc3C(F)F)c2)C1=O [Compound 312],27.8 nM,,
≥ 6.58 h,CC(C)(C)C[C@]1(c2ccc(-c3cnn(C4CC4)c3)cc2Cl)NC(=N)N([C@H](COC(=O)NC2(C(F)(F)F)CC2)c2ccc(Cl)c(-n3ncnc3C(F)F)c2)C1=O [Compound 317],99.1 nM,,
≥ 6.58 h,CC(C)(C#N)C[C@]1(c2ccc(-c3ccn(C(F)F)n3)cc2)NC(=N)N([C@H](COC(=O)NC2(C(F)(F)F)CC2)c2ccc(Cl)c(-n3ncnc3C(F)F)c2)C1=O [Compound 336],74.7 nM,,
≥ 6.58 h,CC(C)(C)C[C@]1(c2ccc(-c3cnn(C(F)F)c3)c(F)c2)NC(=N)N([C@H](COC(=O)N[C@@H]2CC2(F)F)c2ccc(Cl)c(-n3ncnc3C(F)F)c2)C1=O [Compound 339],9.09 nM,,
≥ 6.58 h,C[C@H](NC(=O)OC[C@H](c1ccc(Cl)c(-n2ncnc2C(F)F)c1)N1C(=N)N[C@](CC(C)(C)C)(c2ccc(-c3cnn(C(F)F)c3)cc2)C1=O)C(F)F [Compound 344],12.1 nM,,
≥ 6.58 h,CC(C[C@]1(c2ccc(-c3cnn(C(F)F)c3)cc2)NC(=N)N([C@H](COC(=O)NC2(C(F)(F)F)CC2)c2ccc(Cl)c(-n3ncnc3C(F)F)c2)C1=O)CS(C)(=O)=O (stereo partly drawn) [Compound 345],134 nM,,
≥ 6.58 h,CC(C)(C)C[C@]1(c2ccc3nc(-c4cnn(C(F)F)c4)ccc3c2)NC(=N)N([C@H](COC(=O)NC2(C(F)(F)F)CC2)c2ccc(Cl)c(-n3ncnc3C(F)F)c2)C1=O [Compound 350],8.9 nM,,
